The record followed here is patent US6310095A, “Inhibitors of protein isoprenyl transferases” (University of Pittsburgh, priority 1998, dated 2001).

Each structure is given as a SMILES string. Where a name gives a salt, the structure may show the parent alone.

The first assay addresses T1, protein farnesyltransferase (Rattus norvegicus, UniProt Q02293+Q04631).
T1 construct: Rat brain protein farnesyltransferase activity is measured; from tissue; host or cells: rat brain; purified according to Reiss et al., Cell 62:81-88 (1990), steps one through three
Nature of the assay: in vitro inhibition of protein farnesyltransferase (scintillation proximity assay, biotin-K Ras B fragment). Type of assay: biochemical. The conditions noted are these: at 1 × 10^-5 M. An outline of the steps: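 Scintillation proximity read-out of farnesylation, using a biotinylated K Ras B fragment (0.1 mM final) in place of biotin-lamin. Enzyme purified from rat brain; results given as % inhibition.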
For orientation: In a scintillation proximity assay essentially only radioactivity close to the scintillant gives light.
`CSCC[C@H](NC(=O)c1ccc(CNCC(C)(C)CN(C)C)cc1-c1ccccc1)C(=O)O` [Example 639]: 10 µM produced 44% inhibition.

The assay is the same for the next values; noted with them: at 1 × 10^-6 M.
As to `CSCC[C@H](NC(=O)c1ccc(COCCc2ccccc2)cc1-c1ccccc1C)C(=O)[O-].[Li+]` [Example 587], the “% inhibition of farnesyltransferase” value came out at 97%. Take `CSCC[C@H](NC(=O)c1ccc(COCCCc2ccccc2)cc1-c1ccccc1C)C(=O)[O-].[Li+]` [Example 595]: the “% inhibition of farnesyltransferase” value stood at 97%.

The assay is the same for the next values; noted with them: at 1 × 10^-6 M; read-out: % inhibition of farnesyltransferase.
For the compound `CSCC[C@H](NC(=O)c1ccc(CNCCC2CCCCC2)cc1-c1ccccc1C)C(=O)O` [Example 607, N-[4-(N-2-cyclohexylethylaminomethyl)-2-(2-methylphenyl)benzoyl]methionine Trifluoroacetate Salt], the inhibition at 1 µM stood at 96%. Same read-out and setting: next, `CSCC[C@H](NC(=O)c1ccc(CN(CCC2CCCCC2)C(=O)N(C)C)cc1-c1ccccc1C)C(=O)O` [Example 610, N-[4-(N-(N,N-dimethylaminocarbonyl)-N-(2-cyclohexylethyl)aminomethyl)-2-(2-methylphenyl)benzoyl]methionine]: 94%; `CSCC[C@H](NC(=O)c1ccc(CN[C@H](C)CC2CCCCC2)cc1-c1ccccc1C)C(=O)O` [Example 613, N-[4-(3-cyclohexylpropan-2-ylaminomethyl)-2-(2-methylphenyl)benzoyl]methionine]: 97%; `CSCC[C@H](NC(=O)c1ccc(CN[C@H](CO)CC2CCCCC2)cc1-c1ccccc1C)C(=O)O` [Example 617, N-[4-(3-cyclohexylpropan-1-ol-2-ylaminomethyl)-2-(2-methylphenyl)benzoyl]methionine]: 99%. The same measure, in the same setting: to `CCS(=O)(=O)C[C@H](CC1CCCCC1)NCc1ccc(C(=O)N[C@@H](CCSC)C(=O)O)c(-c2ccccc2C)c1` [Example 620, N-[4-(3-cyclohexyl-1-ethylsulfonylpropan-2-ylaminomethyl)-2-(2-methylphenyl)benzoyl]methionine Lithium Salt] belongs 98%. With `CSCC[C@H](NC(=O)c1ccc(CNCCS)cc1-c1ccccc1)C(=O)O` [Example 626], the inhibition at 1 µM worked out at 61%.

Take `CSCC[C@H](NC(=O)c1ccc(CNCCSC(C)(C)C)cc1-c1ccccc1)C(=O)O` [Example 627]: the inhibition at 1 µM came to 85%. As for `CSCC[C@H](NC(=O)c1ccc(CNCC(O)CO)cc1-c1ccccc1)C(=O)O` (some centres unmarked) [Example 632], the inhibition at 1 µM was 43%. On the same count and under the same terms, next, `CSCCC(CO)NCc1ccc(C(=O)N[C@@H](CCSC)C(=O)O)c(-c2ccccc2)c1` (some centres unmarked) [Example 633]: 32%; `CSCC[C@H](NC(=O)c1ccc(CNCCN(C(C)C)C(C)C)cc1-c1ccccc1)C(=O)O` [Example 636]: 72%; `CSCC[C@H](NC(=O)c1ccc(CNCCN2CCCC2)cc1-c1ccccc1)C(=O)O` [Example 641]: 34%.

Staying with this assay, now noted: at 1 × 10^-7 M.
As to `COc1ccccc1CCOCc1ccc(C(=O)N[C@@H](CCSC)C(=O)O)c(-c2ccccc2C)c1` [Example 589], the “% inhibition of farnesyltransferase” value stood at 91%.

In the case of `CSCC[C@H](NC(=O)c1ccc(COCCc2ccc(Cl)cc2)cc1-c1ccccc1C)C(=O)[O-].[Li+]` [Example 590], the “% inhibition of farnesyltransferase” value was determined as 95%. Still for that read-out and setting: next, `CSCC[C@H](NC(=O)c1ccc(COCCc2cccc3ccccc23)cc1-c1ccccc1C)C(=O)[O-].[Li+]` [Example 592]: 93%; `CSCC[C@H](NC(=O)c1ccc(COCCc2ccc3ccccc3c2)cc1-c1ccccc1C)C(=O)[O-].[Li+]` [Example 593]: 86%; `CSCC[C@H](NC(=O)c1ccc(COCCC2CCCCC2)cc1-c1ccccc1C)C(=O)[O-].[Li+]` [Example 594]: 95%. Turning to `CSCC[C@@H](C(=O)[O-])N(C)C(=O)c1ccc(COCCCC2CCCCC2)cc1-c1ccccc1C.[Li+]` [Example 597], the “% inhibition of farnesyltransferase” value turned out to be 75%. Still for that read-out and setting: to `CSCC[C@H](NC(=O)c1ccc(COCCCCC2CCCCC2)cc1-c1ccccc1C)C(=O)O` [Example 600] belongs 93%; to `CSCC[C@H](NC(=O)c1ccc(COCCCCc2ccccc2)cc1-c1ccccc1C)C(=O)O` [Example 601], 92%.

The assay is the same for the next values; noted with them: at 1 × 10^-7 M; read-out: % inhibition of farnesyltransferase.
Take `CSCC[C@H](NC(=O)c1ccc(CN[C@@H](CO)C2CCCCC2)cc1-c1ccccc1C)C(=O)O` [Example 604, N-[4-(2-cyclohexylethan-1-ol-2-ylaminomethyl)-2-(2-methylphenyl)benzoyl]methionine Lithium Salt]: the inhibition at 0.1 µM is 86%.

On to `CSCC[C@H](NC(=O)c1ccc(CN(CCC2CCCCC2)S(C)(=O)=O)cc1-c1ccccc1C)C(=O)O` [Example 611, N-[4-(N-(2-cyclohexylethyl)-N-methanesulfonylaminomethyl)-2-(2-methylphenyl)benzol]methionine Lithium Salt], for which the inhibition at 0.1 µM was found to be 95%. Same read-out and setting: to `CCCC[C@H](CC1CCCCC1)NCc1ccc(C(=O)N[C@@H](CCSC)C(=O)O)c(-c2ccccc2C)c1` [Example 615, N-[4-(6-cyclohexylhexan-5-ylaminomethyl)-2-(2-methylphenyl)benzoyl]methionine Lithium Salt] belongs 94%. Same read-out and setting: to `CSCC[C@H](NC(=O)c1ccc(CN[C@@H](CO)CC2CCCCC2)cc1-c1ccccc1C)C(=O)O` [Example 618, N-[4-(3-cyclohexylpropan-1-ol-2-ylaminomethyl)-2-(2-methylphenyl)benzoyl]methionine Trifluoroacetate Salt] belongs 89%; to `CCS(=O)(=O)C[C@H](CC1CCCCC1)NCc1ccc(C(=O)N[C@@H](CCS(C)(=O)=O)C(=O)O)c(-c2ccccc2C)c1` [Example 621, N-[4-(3-cyclohexyl-1-ethylsulfonylpropan-2-ylaminomethyl)-2-(2-methylphenyl)benzoyl]-2-amino-4-methanesulfonylbutanoic acid Lithium Salt], 98%. Turning to `CSCC[C@H](NC(=O)c1ccc(CN[C@H](CSC(C)(C)C)CC2CCCCC2)cc1-c1ccccc1C)C(=O)O` [Example 622, N-[4-(3-cyclohexyl-1-t-butylthiopropan-2-ylaminomethyl)-2-(2-methylphenyl)benzoyl]methionine Lithium Salt], the inhibition at 0.1 µM came to 95%.

Consider `CSCC[C@H](NC(=O)c1ccc(CN[C@H](CSc2ccccc2)CC2CCCCC2)cc1-c1ccccc1C)C(=O)O` [Example 623, N-[4-(3-cyclohexyl-1-phenylthiopropan-2-ylaminomethyl)-2-(2-methylphenyl)benzoyl]methionine Lithium Salt], for which the inhibition at 0.1 µM turned out to be 96%.

The assay is the same for the next values; noted with them: at 1 × 10^-8 M.
On to `CSCC[C@H](NC(=O)c1ccc(CSCc2ccccc2)cc1-c1ccccc1C)C(=O)NS(=O)(=O)c1ccc(C)cc1` [Example 586], for which the “% inhibition of farnesyltransferase” value came out at 90%. Consider `CSCC[C@H](NC(=O)c1ccc(COCCc2ccccc2Cl)cc1-c1ccccc1C)C(=O)[O-].[Li+]` [Example 588], for which the “% inhibition of farnesyltransferase” value amounted to 68%. Same read-out and setting: to `CSCC[C@H](NC(=O)c1ccc(COCCc2ccc(Cl)cc2Cl)cc1-c1ccccc1C)C(=O)[O-].[Li+]` [Example 591] belongs 82%. Still for that read-out and setting: to `CSCC[C@H](NC(=O)c1ccc(COCCCC23CC4CC(CC(C4)C2)C3)cc1-c1ccccc1C)C(=O)[O-].[Li+]` [Example 599] belongs 86%; to `CCSC[C@H](CC1CCCCC1)OCc1ccc(C(=O)N[C@@H](CCSC)C(=O)O)c(-c2ccccc2C)c1` [Example 606], 93%.

The same assay, now with this note: at 1 × 10^-8 M; read-out: % inhibition of farnesyltransferase.
As to `CSCC[C@H](NC(=O)c1ccc(CN(CCC2CCCCC2)S(=O)(=O)c2ccccc2)cc1-c1ccccc1C)C(=O)O` [Example 612, N-[4-(N-benzenenesulfonyl-N-(2-cyclohexylethyl)aminomethyl)-2-(2-methylphenyl)benzoyl]methionine Lithium Salt], the inhibition at 0.01 µM was found to be 96%.

With `CC[C@H](CC1CCCCC1)NCc1ccc(C(=O)N[C@@H](CCSC)C(=O)O)c(-c2ccccc2C)c1` [Example 614, N-[4-(4-cyclohexylbutan-3-ylaminomethyl)-2-(2-methylphenyl)benzoyl]methionine Lithium Salt], the inhibition at 0.01 µM amounted to 92%. Same read-out and setting: to `C=C[C@H](CC1CCCCC1)NCc1ccc(C(=O)N[C@@H](CCSC)C(=O)O)c(-c2ccccc2C)c1` [Example 619, N-[4-(2-cyclohexylprop-1-en-2-ylaminomethyl)-2-(2-methylphenyl)benzoyl]methionine Lithium Salt] belongs 95%.

The assay is the same for the next values; noted with them: read-out: % inhibition of farnesyltransferase.
On to `CSCC[C@H](NC(=O)c1ccc(CN(CCC2CCCCC2)Cc2ccccc2)cc1-c1ccccc1C)C(=O)O` [Example 605, N-[4-(N-benzyl-N-(2-cyclohexylethyl)aminomethyl)-2-(2-methylphenyl)benzoyl]methionine Lithium Salt], for which the inhibition at 0.01 µM amounted to 68%. Still for that read-out and setting: to `CSCC[C@H](NC(=O)c1ccc(CN(C)CCC2CCCCC2)cc1-c1ccccc1C)C(=O)O` [Example 608, N-[4-(N-(2-cyclohexylethyl)-N-methylaminomethyl)-2-(2-methylphenyl)benzoyl]methionine Lithium Salt] belongs 91%. In the case of `CSCC[C@H](NC(=O)c1ccc(CN(CCC2CCCCC2)C(C)=O)cc1-c1ccccc1C)C(=O)O` [Example 609, N-[4-(N-acetyl-N-(2-cyclohexylethyl)aminomethyl)-2-(2-methylphenyl)benzoyl]methionine Lithium Salt], the inhibition at 0.1 µM was determined as 95%. `CSCC[C@H](NC(=O)c1ccc(CNC(CC2CCCCC2)C2CCCCC2)cc1-c1ccccc1C)C(=O)O` (some centres unmarked) [Example 616, N-[4-(1,2-dicyclohexylethylaminomethyl)-2-(2-methylphenyl)benzoyl]methionine Lithium Salt]: the inhibition at 0.1 µM was 95%.

By inhibition is commonly meant the change of the read-out against control, counted positive when it falls.
